Test results published in patent US10676527B2, “Methods and compositions for modulation of blood-neural barrier” (Ludwig Institute for Cancer Research Ltd, priority 2006, dated 2020).
Counter-ions that a name gives are not always drawn.

Assays:
[1] = biological target: PDGFR-α (Homo sapiens, UniProt P16234); conditions: known from the art; cited from earlier work
[2] = tested on: BBB; assay: Evans Blue extravasation (BBB opening) after intraventricular injection; assay type: in vivo; conditions: Example 1, FIG. 1; C57BL6 mice, 2 μl intraventricular, 3 μM, 1 hour after injection
Method: Wild type C57BL6 mice (10 Week old) were injected intraventricularly into the dorsal third ventricle with 2 μl of PBS, active PDGF-AA, PDGF-BB (both from Preprotech Inc.) and PDGF-CC (see below) (3 μM). Evans Blue was given intravenously immediately after the injection. One hour after the injection, the animals were perfused with PBS and the brain tissue was removed and processed for Evans Blue extravasation.
Wild type C57BL6 mice (10 Week old) were injected intraventricularly into the dorsal third ventricle with 2 μl of either PBS, wild type murine tPA (3 μM), active PDGF-CC (3 μM), or wild type murine tPA (3 μM) plus active PDGF-CC (3 μM). Evans Blue was given intravenously immediately after the injection. One hour after the injection, the animals were perfused with PBS and the brain tissue was removed and processed for Evans Blue extravasation.
Wt C57BL6 mice (10 Week old) were injected intraventricularly with 3 μl of either PBS, wild type murine tPA (3 μM), wild type murine tPA (3 μM) with rabbit anti-PDGF-CC (150 μg/ml). Evans Blue was given intravenously immediately after the injection. One hour after the injection, the animals were perfused with PBS and the brain tissue was removed and processed for Evans Blue extravasation.

Chain of PDGFR-α (P16234 24-1089, species assumed): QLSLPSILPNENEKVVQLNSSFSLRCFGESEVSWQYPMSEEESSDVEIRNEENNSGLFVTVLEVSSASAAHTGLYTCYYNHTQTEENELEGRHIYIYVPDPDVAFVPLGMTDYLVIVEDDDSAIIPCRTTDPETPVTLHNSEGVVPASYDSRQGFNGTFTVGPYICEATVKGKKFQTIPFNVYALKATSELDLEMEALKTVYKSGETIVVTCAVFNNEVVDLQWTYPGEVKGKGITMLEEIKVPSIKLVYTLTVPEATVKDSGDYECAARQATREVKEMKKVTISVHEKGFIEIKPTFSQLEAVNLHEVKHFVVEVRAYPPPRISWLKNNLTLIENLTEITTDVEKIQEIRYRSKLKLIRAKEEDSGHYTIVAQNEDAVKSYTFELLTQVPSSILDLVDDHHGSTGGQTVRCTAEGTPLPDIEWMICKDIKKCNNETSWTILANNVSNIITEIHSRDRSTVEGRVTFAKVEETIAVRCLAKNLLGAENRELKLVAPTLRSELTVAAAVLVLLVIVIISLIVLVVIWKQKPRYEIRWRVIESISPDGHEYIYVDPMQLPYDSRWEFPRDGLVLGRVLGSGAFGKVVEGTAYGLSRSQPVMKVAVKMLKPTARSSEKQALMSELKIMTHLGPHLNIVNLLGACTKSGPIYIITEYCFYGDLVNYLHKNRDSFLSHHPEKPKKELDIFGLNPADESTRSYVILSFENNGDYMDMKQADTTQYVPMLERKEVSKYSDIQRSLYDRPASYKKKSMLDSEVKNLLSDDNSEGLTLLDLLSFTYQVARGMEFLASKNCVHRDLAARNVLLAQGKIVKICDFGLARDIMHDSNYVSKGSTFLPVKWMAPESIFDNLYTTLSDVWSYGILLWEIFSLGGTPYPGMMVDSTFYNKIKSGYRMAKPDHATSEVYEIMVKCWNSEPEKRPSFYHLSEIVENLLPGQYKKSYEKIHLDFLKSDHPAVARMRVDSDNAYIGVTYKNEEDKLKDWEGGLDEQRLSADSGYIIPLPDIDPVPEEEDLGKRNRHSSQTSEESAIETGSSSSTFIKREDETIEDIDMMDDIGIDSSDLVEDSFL

| Molecule | inhibition of PDGFR-α [1] | vascular permeability / opening of the BBB (Evans Blue extravasation) [2] |
| --- | --- | --- |
| Cc1ccc(NC(=O)c2ccc(CN3CCN(C)CC3)cc2)cc1Nc1nccc(-c2cccnc2)n1 [Gleevec®, imatinib mesylate] | at least partially inhibit | – |
| PDGF-AA: active platelet-derived growth factor AA dimer (from Preprotech Inc.) | – | induce increased vascular permeability |
